Data reported in patent EP0187355A1, “Process for preparing beta-lactam antibiotics” (E.R. Squibb & Sons, Inc., priority 1981, dated 1982).
Counter-ions that a name gives are not always drawn.

Assays:
Assay in all cases: MIC, agar dilution
Format in all cases: cell-based
[1] = test system: Klebsiella aerogenes, 10440; conditions: K-10 agar, 10^4 CFU, 37°C, 18 hours, read-out: M.I.C.
Procedure, shortened: (§1)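 Test strains are first grown in broth at 37°C for 18–20 hours, then diluted 1:100. Compounds are serially halved and mixed into K-10 agar at final levels from 100 to 0.05 µg/ml. Each plate receives about 10^4 CFU per organism, and growth is scored after 18 hours at 37°C.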

[2] = test system: Pseudomonas aeruginosa, 8329; conditions: K-10 agar, 10^4 CFU, 37°C, 18 hours, read-out: M.I.C.
Procedure, shortened: as §1

[3] = test system: Streptococcus faecalis, 9011; conditions: Enterococcus faecalis; Streptococcus faecalis, 9011; K-10 agar, 10^4 CFU, 37°C, 18 hours; read-out: M.I.C.
Procedure, shortened: as §1

[4] = test system: Staphylococcus aureus, 2400; conditions: Staphylococcus aureus, 2400; K-10 agar, 10^4 CFU, 37°C, 18 hours; read-out: M.I.C.
Procedure, shortened: as §1

[5] = test system: Shigella sonnei, 8449; conditions: Shigella sonnei, 8449, 18 h, K-10 agar, 10^4 CFU, 37°C
Procedure, shortened: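 MIC, the lowest compound concentration preventing visible growth, is read after plates incubate 18 h at 37°C. Plates hold K-10 agar with twofold drug dilutions spanning 100 to 0.05 µg/ml, each spot-inoculated with 10^4 CFU.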

[6] = test system: Escherichia coli, 10909; conditions: K-10 agar, 10^4 CFU, 37°C, 18 hours
Procedure, shortened: as §1

[7] = test system: Salmonella typhosa, 1195; conditions: Salmonella enterica, TYPHOSA, 18 h, K-10 agar, 10^4 CFU, 37°C
Procedure, shortened: as §1

[8] = test system: Proteus vulgaris, 9416; conditions: K-10 agar, 10^4 CFU, 37°C, 18 hours, read-out: M.I.C.
Procedure, shortened: as §1

[9] = test system: Citrobacter freundii, 9518; conditions: K-10 agar, 10^4 CFU, 37°C, 18 hours, read-out: M.I.C.
Procedure, shortened: as §1

[10] = test system: Escherichia coli, 8294; conditions: Escherichia coli, 8294, 18 h, K-10 agar, 10^4 CFU, 37°C
Procedure, shortened: as §1

[11] = test system: Escherichia coli, 10857; conditions: Escherichia coli, 10857, 18 h, K-10 agar, 10^4 CFU, 37°C
Procedure, shortened: as §1

[12] = test system: Staphylococcus aureus, 2399; conditions: Staphylococcus aureus, 2399, 18 h, Staphylococcus aureus, 2399; K-10 agar, 10^4 CFU, 37°C, 18 hours; read-out: M.I.C.
Procedure, shortened: as §1

[13] = test system: Acinetobacter calcoaceticus, 8333; conditions: Acinetobacter calcoaceticus, 8333, 18 h, K-10 agar, 10^4 CFU, 37°C, read-out: M.I.C.
Procedure, shortened: as §1

[14] = test system: Escherichia coli, 10896; conditions: K-10 agar, 10^4 CFU, 37°C, 18 hours
Procedure, shortened: as §1

[15] = test system: Proteus rettgeri, 8479; conditions: Providencia rettgeri, K-10 agar, 10^4 CFU, 37°C, 18 hours, read-out: M.I.C.
Procedure, shortened: as §1

[16] = test system: Staphylococcus aureus, 10165; conditions: Staphylococcus aureus, 10165; K-10 agar, 10^4 CFU, 37°C, 18 hours; read-out: M.I.C.
Procedure, shortened: as §1

[17] = test system: Enterobacter aerogenes, 10078; conditions: Klebsiella aerogenes, 10078, 18 h, Enterobacter aerogenes, 10078; K-10 agar, 10^4 CFU, 37°C, 18 hours; read-out: M.I.C.
Procedure, shortened: as §1

[18] = test system: Pseudomonas aeruginosa, 9545; conditions: Pseudomonas aeruginosa, 9545, 18 h, K-10 agar, 10^4 CFU, 37°C, read-out: M.I.C.
Procedure, shortened: as §1

[19] = test system: Klebsiella pneumoniae, 9527; conditions: Klebsiella pneumoniae, 9527, 18 h, K-10 agar, 10^4 CFU, 37°C, read-out: M.I.C.
Procedure, shortened: as §1

[20] = test system: Serratia marcescens, 9783; conditions: Serratia marcescens, 9783, 18 h, K-10 agar, 10^4 CFU, 37°C, read-out: M.I.C.
Procedure, shortened: as §1

[21] = test system: Proteus mirabilis, 3855; conditions: Proteus mirabilis, 3855, 18 h, K-10 agar, 10^4 CFU, 37°C, read-out: M.I.C.
Procedure, shortened: as §1

[22] = test system: Staphylococcus aureus, 1276; conditions: Staphylococcus aureus, 1276; K-10 agar, 10^4 CFU, 37°C, 18 hours; read-out: M.I.C.
Procedure, shortened: as §1

[23] = test system: Enterobacter cloacae, 8236; conditions: Enterobacter cloacae, 8236, 18 h, K-10 agar, 10^4 CFU, 37°C
Procedure, shortened: (§2)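 Broth cultures grown 18-20 h at 37°C, diluted 1:100 in K-10 broth, applied by multipoint inoculator at 10^4 CFU onto K-10 agar holding twofold compound dilutions, 100 to 0.05 µg/ml final. MIC taken as lowest concentration inhibiting growth.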

[24] = test system: Streptococcus agalactiae, 9287; conditions: Streptococcus agalactiae, 9287, 18 h, K-10 agar, 10^4 CFU, 37°C, read-out: M.I.C.
Procedure, shortened: as §2

[25] = test system: Micrococcus luteus, 2495; conditions: Micrococcus luteus, 2495, 18 h, K-10 agar, 10^4 CFU, 37°C, read-out: M.I.C.
Procedure, shortened: as §2

Structure (SMILES)	MIC [1] [µg/mL]	MIC [2] [µg/mL]	MIC [3] [µg/mL]	MIC [4] [µg/mL]	MIC [5] [µg/mL]	MIC [6] [µg/mL]	MIC [7] [µg/mL]	MIC [8] [µg/mL]	MIC [9] [µg/mL]	MIC [10] [µg/mL]	MIC [11] [µg/mL]	MIC [12] [µg/mL]	MIC [13] [µg/mL]	MIC [14] [µg/mL]	MIC [15] [µg/mL]	MIC [16] [µg/mL]	MIC [17] [µg/mL]	MIC [18] [µg/mL]	MIC [19] [µg/mL]	MIC [20] [µg/mL]	also measured
C[C@H]1[C@H](NC(=O)/C(=N\OCC(=O)O)c2csc(N)n2)C(=O)N1S(=O)(=O)O [Example 31, [3S-[3α(Z),4β]]-3-[[[(Carboxymethoxy)imino](2-amino-4-thiazolyl)acetyl]amino]-4-methyl-2-oxo-l-azetidinesulfonic acid, dipotassium salt]	0.8	12.5	> 100	> 100	0.4	0.1	0.2	0.2	0.2	0.4	0.2	> 100	100	0.1	0.05	> 100	0.4	0.8	0.2	0.4	MIC [21]: 0.2 µg/mL; MIC [22]: > 100 µg/mL; MIC [23]: 0.2 µg/mL; MIC [24]: 100 µg/mL; MIC [25]: > 100 µg/mL
CC1C(NC(=O)C(NC(=O)N2CCN(N)C(=O)C2=O)c2ccccc2)C(=O)N1S(=O)(=O)O (stereo not drawn) [Example 32, [3S(R*)]-3-[[[[(4-Amino-2,3-dioxo-1-piperazinyl)-carbonyl]amino]phenylacetyl]amino]-4-methyl-2-oxo-l-azetidinesulfonic acid, potassium salt]	1.6	50	> 100	25	6.3	0.8	0.2	0.2	3.1	3.1	0.4	12.5	50	12.5	0.4	> 100	6.3	6.3	0.2	3.1	MIC [21]: 0.4 µg/mL; MIC [22]: 25 µg/mL; MIC [23]: 6.3 µg/mL; MIC [24]: 6.3 µg/mL; MIC [25]: 6.3 µg/mL
